In one assay the target is T1, TR beta-LBD (Homo sapiens, UniProt P10828).
T1 construct: TR alpha-LBD (0.4 nM final concentration) or TR beta-LBD (1.0 nM final concentration) was added; purchased ThermoFisher
T1 sequence (P10828 217-461 limits assumed): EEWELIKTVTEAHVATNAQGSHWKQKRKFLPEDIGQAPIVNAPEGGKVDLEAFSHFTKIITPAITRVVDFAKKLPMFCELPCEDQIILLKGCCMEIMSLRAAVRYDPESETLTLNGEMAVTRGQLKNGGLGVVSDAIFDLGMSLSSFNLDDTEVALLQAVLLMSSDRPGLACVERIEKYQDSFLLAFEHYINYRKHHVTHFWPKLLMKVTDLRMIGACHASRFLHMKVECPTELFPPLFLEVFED
The assay can be described thus: LanthaScreen TR-FRET Thyroid Receptor beta Coactivator Assay. In kind it is biochemical. To be noted: for THRβ-Selectivity: THR beta over THR alpha, derived from T3-selectivity normalized data; for EC50: TR-FRET coactivator recruitment, 2 hour incubation at room temperature, run in duplicate multiple times, average data reported, read-out: EC50 THRβ-FRET. On the procedure:
(§1) LanthaScreen™ TR-FRET Thyroid Receptor alpha Coactivator Assay kit (ThermoFisher) and LanthaScreen™ TR-FRET Thyroid Receptor beta Coactivator Assay kit (ThermoFisher) were used for agonist compound screening. Compounds in DMSO were diluted using ECHO Liquid Handler (Labcyte Inc.) into 384 plates in 10-point 3-fold series in duplicate (5 micro M final top concentration). Buffer C (ThermoFisher) was added to each well before the 4×mixture of fluorescein-SCR2-2 coactivator (200 nM final concentration), Terbium-labeled anti-GST antibody (2 nM final concentration), and TR alpha-LBD (0.4 nM final concentration) or TR beta-LBD (1.0 nM final concentration) was added. After 2 hour incubation at room temperature in dark, the TR-FRET signal was measured on an EnVision plate reader (PerkinElmer) with excitation at 340 nm and dual emission readout at 495 and 520 nm with the delay time of 100 micro second and the integration time of 200 micro second. The ratio of emission signal at 520 and at 495 was used to calculate EC50 using GraphPad Prism (GraphPad Software). In every batch of compound screening, T3 (L-3,3′,5-Triiodothyronine sodium salt, >95%) (Calbiochem) was used as reference compound. The EC50 of T3 measured were within 3-fold of the reference value provided by the assay kit manufacturer (ThermoFisher Scientific). The Z′ factors measured in every batch of screening using T3 as high percent effect (HPE) control and 0.5% DMSO as zero percent effect (ZPE) control were in the range of 0.5 to 0.8. Compounds' THR-beta selectivity values are derived from T3-selectivity normalized data.
On the technique in general: In TR-FRET formats the signal depends on donor and acceptor labels being close together.

Another assay addresses T2, TR alpha-LBD (Homo sapiens, UniProt P10827).
T2 construct: TR alpha-LBD (0.4 nM final concentration) or TR beta-LBD (1.0 nM final concentration) was added; purchased ThermoFisher
The assay can be described thus: LanthaScreen TR-FRET Thyroid Receptor alpha Coactivator Assay. In kind it is biochemical. The settings on record: TR-FRET coactivator recruitment, 2 hour incubation at room temperature; run in duplicate multiple times, average data reported; read-out: EC50 THRα-FRET. On the procedure:
as §1, with “The EC50 of T3 measured were within 3-fold of the reference value provided by the assay kit manufacturer (ThermoFisher Scientific).” left out, “Compounds' THR-beta selectivity values are derived from T3-selectivity normalized data.” left out

T2 sequence (P10827 163-410 isoform P10827-2 limits assumed, other chains not shown): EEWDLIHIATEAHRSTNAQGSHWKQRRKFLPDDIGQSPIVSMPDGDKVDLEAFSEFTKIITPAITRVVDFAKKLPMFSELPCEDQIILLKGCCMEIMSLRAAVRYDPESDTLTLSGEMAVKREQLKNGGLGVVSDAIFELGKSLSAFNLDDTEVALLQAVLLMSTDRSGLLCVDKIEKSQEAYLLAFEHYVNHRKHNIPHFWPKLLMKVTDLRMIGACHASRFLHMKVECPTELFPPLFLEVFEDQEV

A word on the EC50: it is the midpoint of the concentration-response curve. On to `O=C(Nc1cc(Cl)c(Oc2n[nH]c(=O)c3ccccc23)c(Cl)c1)c1noc(=O)[nH]1` [Example 1, N-(3,5-dichloro-4-((4-oxo-3,4-dihydrophthalazin-1-yl)oxy)phenyl)-5-oxo-4,5-dihydro-1,2,4-oxadiazole-3-carboxamide], for which, on TR beta-LBD, the THRβ-Selectivity is 57.5 and the EC50 was determined as 33.7 nM. Moreover, the concentration for a half-maximal effect (EC50) at TR alpha-LBD came to 492 nM.

In turn, `Cn1nc(Oc2c(Cl)cc(NC(=O)c3noc(=O)[nH]3)cc2Cl)c2ccccc2c1=O` [Example 2, N-(3,5-dichloro-4-((3-methyl-4-oxo-3,4-dihydrophthalazin-1-yl)oxy)phenyl)-5-oxo-4,5-dihydro-1,2,4-oxadiazole-3-carboxamide] returned a THRβ-Selectivity at TR beta-LBD of 10.9. The values for the EC50 on TR beta-LBD and on TR alpha-LBD were 5.5 nM and 40.5 nM, respectively.

Source of the values: US12398127B2, “Thyroid hormone receptor beta agonist compounds” (Terns Pharmaceuticals, Inc., priority 2019, dated 2025).
